Assays:
cancer cell lines = test: 72-hour MTT cell proliferation assay, summary over the cancer cell lines tested; format: cell-based
Protocol: (§1) The MTT cell proliferation assay was used to study the cytotoxic properties of the compounds. The assay was performed according to the method described by Roche Molecular Biochemicals, with minor modifications. The assay is based on the cleavage of the tetrazolium salt, MTT, in the presence of an electron-coupling reagent. The water-insoluble formazan salt produced must be solubilized in an additional step. Cells grown in a 96-well tissue culture plate were incubated with the MTT solution for approximately 4 hours. After this incubation period, a water-insoluble formazan dye formed. After solubilization, the formazan dye was quantitated using a scanning multi-well spectrophotometer (ELISA reader). […] The cells were seeded at 5,000-10,000 cells in each well of 96-well plate in 100 μL of fresh culture medium and were allowed to attach overnight. The stock solutions of the compounds were diluted in 100 μL cell culture medium to obtain eight concentrations of each test compound, ranging from 1 nM to 30 μM. […] All optical densities were measured at 490 nm using a Vmax Kinetic Microplate Reader (Molecular Devices). In most cases, the assay was performed in duplicate and the results were presented as a mean percent inhibition to the negative control±SE. The following formula was used to calculate the percent of inhibition: Inhibition (%)=(1−(ODo/OD))×100.
Compounds 504, 510, 525 and 585 were further tested against selected solid and hematological cancer cell lines and selected normal cell lines in a 72-hour MTT cell proliferation assay.

[1] = tested on: PAK4 signalling in NHDF cells; test: Western blots of PAK4 signalling in normal cells (NHDF); format: cell-based, human; conditions: NHDF normal cell line; 72-hour treatment, increasing concentrations; Western blot
Protocol: Normal human dermal fibroblasts (NHDF) and normal lung cells (IMR-90) were treated with Compound 585 for 72 hours, at which time the cells were lysed in RIPA buffer. The lysates were run on SDS-PAGE and Western blots of phospho-PAK4, PAK4, phospho-cofilin, cofilin, phospho-β-catenin, β-catenin, PARP and caspase-3 were performed.

RWPE-1 cells = test: MTT cell proliferation assay; format: cell-based; conditions: Homo sapiens, 72-hour MTT
In short: (§2)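 72-h MTT proliferation; 5,000-10,000 cells/well, overnight attachment; cpd 1 nM–30 μM, 8 concs; MTT ~4 h, formazan solubilized, OD490; % inhibition vs negative control, mean±SE, usually duplicate.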

Hs578T cells = test: MTT cell proliferation assay; format: cell-based; conditions: Homo sapiens, Hs-578T, 72-hour MTT
In short: as §2

CAMA-1 cells = test: MTT cell proliferation assay; format: cell-based; conditions: Homo sapiens, 72-hour MTT
In short: as §2

HPAC cells = test: MTT cell proliferation assay; format: cell-based; conditions: Homo sapiens, 72-hour MTT
In short: as §2

NCI-H1650 cells = test: MTT cell proliferation assay; format: cell-based; conditions: Homo sapiens, 72-hour MTT
In short: as §2

WI-38 cells = test: MTT cell proliferation assay; format: cell-based; conditions: Homo sapiens, 72-hour MTT
In short: as §2

HPAF-II cells = test: MTT cell proliferation assay; format: cell-based; conditions: Homo sapiens, 72-hour MTT
In short: as §2

NCI-H69 cells = test: MTT cell proliferation assay; format: cell-based; conditions: Homo sapiens, 72-hour MTT
In short: as §2

Tera-1 cells = test: MTT cell proliferation assay; format: cell-based; conditions: 72-hour MTT
In short: as §2

Hep G2 cells = test: MTT cell proliferation assay; format: cell-based; conditions: Homo sapiens, HepG2; Hep G2 cells; 72-hour MTT; read-out: Hep G2 MTT IC50
Protocol: as §1
(§3) The M24 cell line is derived from human melanoma cells. The U2OS cell line is a human osteosarcoma cell line expressing wild type p53 and Rb, but lacking p16. The MM1S cell line is a multiple myeloma cell line; the parent cell line, MM.1, was established from peripheral blood of a multiple myeloma patient who had become resistant to steroid-based therapy. The RPMI8226 cell line is derived from human B lymphocyte cells. NHDF cells are normal human dermal fibroblast cells. The MRC-5 cell line is derived from normal lung tissue of a fetus. The PC3 cell line is a human prostate cancer cell line. The DU-145 cell line is a human prostate cancer cell line. The MDA-MB-231 cell line is a human breast adenocarcinoma cell line. The MDA-MB-468 cell line is a human breast carcinoma cell line. HL-60 cells are human promyelocytic leukemia cells. Hep G2 cells are human hepatocellular carcinoma cells. HEP 3B cells are human hepatocellular carcinoma cells. The DLD-1 cell line is a colorectal adenocarcinoma cell line. The HCT-15 cell line is a human colon carcinoma cell line. The Colo-205 cell line is derived from a human adenocarcinoma of the colon. The LoVo cell line is a human colon adenocarcinoma cell line.

HL-60 cells = test: MTT cell proliferation assay; format: cell-based; conditions: Homo sapiens; HL-60 cells; 72-hour MTT; read-out: HL-60 MTT IC50
Protocol: as §1, §3

HEP 3B cells = test: MTT cell proliferation assay; format: cell-based; conditions: Homo sapiens, Hep3B; HEP 3B cells; 72-hour MTT; read-out: HEP 3B MTT IC50
Protocol: as §1, §3

RPMI8226 cells = test: MTT cell proliferation assay; format: cell-based; conditions: Homo sapiens, RPMI-8226; RPMI8226 cells; 72-hour MTT; read-out: RPMI8226 MTT IC50
Protocol: as §1, §3

Hep 3B xenografts = test: Hep3B hepatocellular carcinoma xenograft in SCID mice; format: in vivo
Protocol: The effects of Compound 585 were evaluated on tumor growth using a Hep3B hepatocellular carcinoma xenograft model in SCID mice. Hep 3B (ATCC […]) hepatocellular carcinoma cells were obtained from ATCC. These cells were grown in DMEM medium supplemented with 10% fetal bovine serum and 1% penicillin and streptomycin. Cells were sub-cultured by dilution at a ratio of 1:4. Hep3B cells were harvested by centrifugation and counted using a hemocytometer. Cells were resuspended in PBS at a 5×10^7 cells per mL. Cells were placed on ice, then mixed with an equal volume of Matrigel™ (BD Biosciences CB-40234). This mixture was kept on ice and injected into the left flank of mice in a volume of 0.2 mL, equivalent to 5×10^6 cells per mouse. Thirty-two (32) SCID mice were inoculated subcutaneously in the left flank with 5×10^6 Hep 3B cells. Treatment was initiated when the tumors reached a mean volume of 103.7 mm3 (standard deviation±30 mm^3, range 17-183 mm^3). Mice were allocated to four (4) groups of eight (8) mice such that mean tumor volume in each group was within the range of 95 to 104 mm^3. Mice were treated with vehicle, standard of care control (doxorubicin), or Compound 585. With the exception of doxorubicin (which was given IP), all compounds were given by oral gavage. […] Animal weights and conditions were recorded daily, and tumors were measured on Mondays, Wednesdays and Fridays.

Nc1ccc(/C=C/C(=O)NCc2cc3cc(-c4ccc(C(=O)N5CCC(F)(F)CC5)cn4)cc(C(F)(F)F)c3o2)cn1 [Compound 585, (E)-3-(6-aminopyridin-3-yl)-N-((5-(5-(4,4-difluoropiperidine-1-carbonyl)pyridin-2-yl)-7-(trifluoromethyl)benzofuran-2-yl)methyl)acrylamide]
share of the hematological cancer cell lines tested with an IC50 of less than 500 nM (cancer cell lines; 30/33 hematological cancer cell lines): 91%
share of the solid cancer cell lines tested with an IC50 of less than 500 nM (cancer cell lines; 42/93 solid cancer cell lines): 45%
share of the cancer cell lines tested with an IC50 of less than 1 μM (cancer cell lines; 91/126 cancer cell lines): 72%
effect on PAK4 signalling (phospho-PAK4, PAK4, phospho-cofilin, cofilin, phospho-β-catenin, β-catenin, PARP, caspase 3) [1]: little to no effect
IC50 (RWPE-1 cells): 4 nM
IC50 (Hs578T cells): 250 nM
IC50 (CAMA-1 cells): 1060 nM
IC50 (HPAC cells): 380 nM
IC50 (NCI-H1650 cells): 530 nM
IC50 (WI-38 cells): 220 nM
IC50 (HPAF-II cells): 550 nM
IC50 (NCI-H69 cells): 80 nM
IC50 (Tera-1 cells): 120 nM
IC50 (Hep G2 cells): 160 nM
IC50 (HL-60 cells): 210 nM
IC50 (HEP 3B cells): 70 nM
IC50 (RPMI8226 cells): 150 nM
toxicity (side effects, weight loss) (Hep 3B xenografts; Hep 3B xenograft model, minimal or no side effects or weight loss up to 200 mg/kg daily dose): without major toxicity
mean tumor volume of Hep 3B xenografts (Hep 3B xenografts; SCID mice, 20 or 60 mg/kg PO daily): tumor growth inhibition
